Assay results published in patent US8871796B2, “Diaryl ether derivatives as notch sparing gamma secretase inhibitors” (Merck Sharp & Dohme Corp., priority 2009, dated 2014).
pIC50: −log10 of the molar value. Like-named read-outs stand apart in the source and are kept apart here.

Test: APP processing: AlphaLisa assay of secreted Aβ40 and Aβ42 from SP4CT cells
Format: cell-based
Conditions: Homo sapiens, SH-SY5Y cells expressing amyloid β protein (SP4CT cells)
In short: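 Secreted Aβ40 and Aβ42 were quantified separately by AlphaLisa luminescence, pairing streptavidin donor beads bearing biotinylated 4G8 with G210 or 12F4 acceptor beads. Samples were conditioned media from compound-treated SH-SY5Y cells expressing amyloid β protein (SP4CT).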

[1] = read-out: IC50, inhibition of production of Aβ40 peptide
[2] = read-out: IC50, inhibition of production of Aβ42 peptide

## CCn1nc(-c2cccc(C(C)(C)NS(=O)(=O)CC(F)(F)F)c2)cc1Oc1ccc(-c2nnc(C)o2)cc1 [Example 75, N-[1-(3-{1-ethyl-5-[4-(5-methyl-1,3,4-oxadiazol-2-yl)phenoxy]-1H-pyrazol-3-yl}phenyl)-1-methylethyl]-2,2,2-trifluoroethanesulfonamide]
[1]
  pIC50: > 6.70
[2]
  pIC50: > 6.70

## CCn1nc(-c2cccc(C(C)(C)NS(=O)(=O)CC(F)(F)F)c2)cc1Oc1ccc(CF)cc1 [Example 63, N-[1-(3-{1-ethyl-5-[4-(fluoromethyl)phenoxy]-1H-pyrazol-3-yl}phenyl)-1-methylethyl]-2,2,2-trifluoroethanesulfonamide]
[1]
  pIC50: > 6.70
[2]
  pIC50: > 6.70

## CCn1nc(-c2cccc(C3(NS(=O)(=O)NCC(F)(F)F)CC3)c2)cc1Oc1ccc(C(F)(F)F)cn1 [Example 41, N-{1-[3-(1-ethyl-5-{[5-(trifluoromethyl)pyridin-2-yl]oxy}-1H-pyrazol-3-yl)phenyl]cyclopropyl}-N′-(2,2,2-trifluoroethyl)sulfamide]
[1]
  pIC50: > 6.70
[2]
  pIC50: > 6.70

## CCn1nc(-c2cccc(C(C)(C)NS(=O)(=O)CC(F)(F)F)c2)cc1Oc1ccc(C(C)F)cc1 (stereo not drawn) [Example 68, N-[1-(3-{1-ethyl-5-[4-(1-fluoroethyl)phenoxy]-1H-pyrazol-3-yl}phenyl)-1-methylethyl]-2,2,2-trifluoroethanesulfonamide]
[1]
  pIC50: > 6.70
[2]
  pIC50: > 6.70

## O=S(=O)(CC(F)(F)F)NC1(c2cccc(-c3cc(Oc4ccc(C(F)(F)F)cc4)n(CC(F)(F)F)n3)c2)CC1 [Example 107, 2,2,2-trifluoro-N-[1-(3-{1-(2,2,2-trifluoroethyl)-5-[4-(trifluoromethyl)phenoxy]-1H-pyrazol-3-yl}phenyl)cyclopropyl]ethanesulfonamide]
[1]
  pIC50: > 6.70
[2]
  pIC50: > 6.70

## CCn1nc(-c2cccc(C(C)(C)NS(=O)(=O)CC(F)(F)F)c2)cc1Oc1ccc(CNCC2(C)CCCO2)cc1 (stereo not drawn) [Example 90, N-[1-(3-{1-ethyl-5-[4-({[(2-methyltetrahydrofuran-2-yl)methyl]amino}methyl)phenoxy]-1H-pyrazol-3-yl}phenyl)-1-methylethyl]-2,2,2-trifluoroethanesulfonamide]
[1]
  pIC50: > 6.70
[2]
  pIC50: > 6.70

## CCn1nc(-c2cccc(C3(NS(=O)(=O)NC)CC3)c2)cc1Oc1ccc(C(F)(F)F)cn1 [Example 45, N-{1-[3-(1-ethyl-5-{[5-(trifluoromethyl)pyridin-2-yl]oxy}-1H-pyrazol-3-yl)phenyl]cyclopropyl}-N′-methylsulfamide]
[1]
  pIC50: > 6.70
[2]
  pIC50: > 6.70

## COCCCn1nc(-c2cccc(C3(NS(=O)(=O)CC(F)(F)F)COC3)c2)cc1Oc1ccc(C(F)(F)F)cc1 [Example 142]
[1]
  pIC50: > 6.70
[2]
  pIC50: > 6.70

## CCn1nc(-c2cccc(C(C)(C)NS(=O)(=O)CC(F)(F)F)c2)cc1Oc1ccc(C(C)=O)cc1 [Example 69, N-(1-{3-[5-(4-acetylphenoxy)-1-ethyl-1H-pyrazol-3-yl]phenyl}-1-methylethyl)-2,2,2-trifluoroethanesulfonamide]
[1]
  pIC50: > 6.70
[2]
  pIC50: > 6.70

## CCn1nc(-c2cc(F)cc(C(C)(C)NS(=O)(=O)CC(F)(F)F)c2)cc1Oc1ccc(C(F)(F)F)cc1 [Example 15, N-[1-(3-{1-ethyl-5-[4-(trifluoromethyl)phenoxy]-1H-pyrazol-3-yl}-5-fluorophenyl)-1-methylethyl]-2,2,2-trifluoraethanesulfonamide]
[1]
  pIC50: > 6.70
[2]
  pIC50: > 6.70

## CCn1nc(-c2cccc(C(C)(C)NS(=O)(=O)CC(F)(F)F)c2)cc1Oc1ccc(CN2CCC3(CC2)OCCO3)cc1 [Example 87, N-[1-(3-{5-[4-(1,4-dioxa-8-azaspiro[4.5]dec-8-ylmethyl)phenoxy]-1-ethyl-1H-pyrazol-3-yl}phenyl)-1-methylethyl]-2,2,2-trifluoroethanesulfonamide]
[1]
  pIC50: > 6.70
[2]
  pIC50: > 6.70

## CCCNS(=O)(=O)NC(C)(C)c1cccc(-c2cc(Oc3ccc(C(F)(F)F)cc3)n(CC)n2)c1 [Example 8, N-[1-(3-{1-ethyl-5-[4-(trifluoromethyl)phenoxy]-1H-pyrazol-3-yl}phenyl)-1-methylethyl]-N′-propylsulfamide]
[1]
  pIC50: > 6.70
[2]
  pIC50: > 6.70

## CCn1nc(Oc2ccc(C(F)(F)F)cc2)cc1-c1cccc(C(C)(C)NS(=O)(=O)NC)c1 [Example 24, N-[1-(3-{1-ethyl-3-[4-(trifluoromethyl)phenoxy]-1H-pyrazol-5-yl}phenyl)-1-methylethyl]-N′-methylsulfamide]
[1]
  pIC50: > 6.70
[2]
  pIC50: > 6.70

## CCn1nc(-c2cccc(C3(NS(=O)(=O)CC(F)(F)F)CC3)c2)cc1Oc1ccc(C(F)(F)F)cn1 [Example 44, N-{1-[3-(1-ethyl-5-{[5-(trifluoromethyl)pyridin-2-yl]oxy}-1H-pyrazol-3-yl)phenyl]cyclopropyl}-2,2,2-trifluoroethanesulfonamide]
[1]
  pIC50: > 6.70
[2]
  pIC50: > 6.70

## O=S(=O)(CC(F)(F)F)NC1(c2cccc(-c3cc(Oc4ccc(C(F)(F)F)cc4)n(Cc4cocn4)n3)c2)COC1 [Example 134, N-(3-{3-[5-(4-trifluoromethylphenoxy)-1-(1,3-oxazol-4-ylmethyl)-1H-pyrazol-3-yl]phenyl}oxetan-3-yl)-2,2,2-trifluoroethanesulfonamide]
[1]
  pIC50: > 6.70
[2]
  pIC50: > 6.70

## CCn1nc(-c2cccc(C(C)(C)NS(=O)(=O)CC(F)(F)F)c2)c(Br)c1Oc1ccc(C(F)(F)F)cc1 [Example 115, N-[2-(3-{4-bromo-1-ethyl-5-[4-(trifluoromethyl)phenoxy]-1H-pyrazol-3-yl}phenyl)propan-2-yl]-2,2,2-trifluoroethanesulfonamide]
[1]
  pIC50: > 6.70
[2]
  pIC50: > 6.70

## CCn1nc(-c2cccc(C3(NS(=O)(=O)NCC(C)C)CC3)c2)cc1Oc1ccc(C(F)(F)F)cc1 [Example 47, N-[1-(3-{1-ethyl-5-[4-(trifluoromethyl)phenoxy]-1H-pyrazol-3-yl}phenyl)cyclopropyl]-N′-isobutylsulfamide]
[1]
  pIC50: > 6.70
[2]
  pIC50: > 6.70

## CCn1nc(-c2cccc(C3(NS(=O)(=O)CC(F)(F)F)CC3)c2)cc1Oc1ncc(F)cn1 [Example 49, N-[1-(3-{1-ethyl-5-[(5-fluoropyrimidin-2-yl)oxy]-1H-pyrazol-3-yl}phenyl)cyclopropyl]-2,2,2-trifluoroethanesulfonamide]
[1]
  pIC50: > 6.70
[2]
  pIC50: > 6.70

## CCn1nc(-c2cccc(C3(NS(=O)(=O)NC4CCC4)CC3)c2)cc1Oc1ccc(C(F)(F)F)cn1 [Example 43, N-cyclobutyl-N′-{1-[3-(1-ethyl-5-{[5-(trifluoromethyl)pyridin-2-yl]oxy}-1H-pyrazol-3-yl)phenyl]cyclopropyl} sulfamide]
[1]
  pIC50: > 6.70
[2]
  pIC50: > 6.70

## CCn1nc(-c2cccc(C(C)(C)NS(=O)(=O)C3CC3)c2)cc1Oc1ccc(C(F)(F)F)cc1 [Example 12, N-[1-(3-{1-ethyl-5-[4-(trifluoromethyl)phenoxy]-1H-pyrazol-3-yl}phenyl)-1-methylethyl] cyclopropanesulfonamide]
[1]
  pIC50: > 6.70
[2]
  pIC50: > 6.70

## CCn1nc(-c2cccc(C3(NS(=O)(=O)CC(F)(F)F)CC3)c2)cc1Oc1ccc(C(F)(F)F)cc1 [Example 28, N-[1-(3-{1-ethyl-5-[4-(trifluoromethyl)phenoxy]-1H-pyrazol-3-yl}phenyl)cyclopropyl]-2,2,2-trifluoroethanesulfonamide]
[1]
  pIC50: > 6.70
[2]
  pIC50: > 6.70
